According to patent US9140705B2, “Tumor suppressor killin” (Vanderbilt University, priority 2005, dated 2015):

Assays:
E. coli = experiment: Bacterial expression / toxicity (colony formation) of Killin and truncated Killin; type: cell-based; details: for toxicity to E. coli (colony formation in the absence of transcriptional repression): pQE32 plasmids expressing truncated Killin
Method: Mutagenesis experiments were performed using EMS (ethylmethanesulfonate) (Sigma) as described previously with minor modification. Exponentially growing XL-1 blue with pQE32-Killin was harvested by centrifugation, washed, and resuspended in minimal A buffer (10.5 g of K2HPO4, 4.5 g of KH2PO4, 1 g of [NH4]2SO4, and 0.5 g of sodium citrate:2H2O in 1 liter). EMS was added to the cells at a concentration of 140 μM for 1 hour during continuous shaking at 37° C. After washing with minimal A buffer, cells was diluted 1:10 in LB medium and grown for 6 hrs at 37° C. before mutagenized plasmids were purified and transformed into either GH1 (without repression, GenHunter) or XL-1 blue (with repression, Stratagene) competent cells. Ampicilin resistant colonies were scored after an overnight incubation.
For deletion analysis, PCR was performed to amplify different regions of Killin as specified. PCR primer sequences used for the deletions are listed below:
The obtained PCR products were first cloned into PCR-TRAP cloning vector and then subcloned as BglII fragments into the BamHI site of the pQE32 6XHIS-tag expression vector (Qiagen). The expression vectors were transformed into XL-1 blue under transcription repression for the transgene (−IPTG). […] As a negative control, all vectors were simultaneously transformed into XL-1 blue cells, which gave near confluent transformants under transcription repression for all constructs. Similar deletion constructs were also made as GFP fusion protein as described above and transiently transfected into the H1299 cells to visualized their ability to cause cell apoptosis based on nuclear chromosome condensation.

double-stranded DNA = experiment: In vitro DNA binding assay (gel shift, 32P-end labeled probes), double-stranded DNA template; details: 32P-end labeled oligo nucleotide probes, read-out: apparent Kd
Method: (§1) In vitro transcribed and translated Killin cloned into pcDNA3.1 (Invitrogen) (K), or vector alone (V) were labeled with ^35S using Translabel (ICN) and a TnT kit (Promega). The labeled Killin and vector control were incubated with either single-stranded (ss) or double-stranded (ds) DNA cellulose (Sigma). After washing with PBS, bound proteins were resolved on a 15% SDS-PAGE gel, dried onto as 3M paper before autoradiography. For peptide binding, 42 as of Killin/N8-50 peptide (MW: 5007 dalton) was synthesized and verified with mass spec by Sigma-Genosys at a purity of at least 70%. The peptide was dissolved in PBS as 1 mg/mL stock solution before use, For in vitro DNA binding assay, 3 primers (32-35 bases in length) with arbitrary sequences were designed:
(§2) After annealing, probes for artificial replication fork (LL and RL) or double-stranded DNA template (LL and RLM) were end-labeled with α-^32P-dATP (Perkin-Elmer) using Klenow (New England Biolab). Single-stranded oligonucleotide (LL) was end-labeled with […] (Perkin-Elmer) using T4 polynucleotide kinase (New England Biolab). […] For binding kinetics, bands from DNA-peptide complex were excised and the radioactivity was determined by scintillation counting. […]

[1] = target: artificial replication fork; experiment: In vitro DNA binding assay (gel shift, 32P-end labeled probes), artificial replication fork; details: 32P-end labeled oligo nucleotide probes, read-out: apparent Kd
Method: as §1, §2

single-stranded DNA = experiment: In vitro DNA binding assay (gel shift, 32P-end labeled probes), single-stranded DNA template; details: 32P-end labeled oligo nucleotide probe, read-out: apparent Kd
Method: as §1, §2

[2] = system: SV40 origin (ori) of replication-dependent in vitro DNA replication; experiment: In vitro SV40 DNA replication assay; type: biochemical, simian virus 40 (SV40); details: peptide 1 to 16 μM; HEK293T nuclear extract as source of SV40 large T antigen
Method: The SV40 origin (ori) of replication-dependent in vitro DNA replication was carried out essentially as described previously (L1 and Kelly, 1984) with minor modifications. Briefly, the source of SV40 large T antigen was from HEK293T cells (GenHunter). The SV40 ori-containing plasmid vector pAPtag-2 (GenHunter) and a negative control vector pUC18 that lacks SV40 ori were used as templates for the in vitro DNA replication assays. 10 ng of nuclear protein extracts and 250 ng of plasmid DNA template were used for each assay. Nascent DNA synthesis in the absence and presence of Killin/N8-50 peptide after ^32P-α-dATP labeling was analyzed on a 6% TBE PAGE gel, dried onto a 3 M paper (Whatman) and visualize by autoradiography.
To determine if Killin/N8-50 peptide binding to DNA has any consequences in DNA replication, the inventors employed the commonly used in vitro eukayotic DNA replication assays originally described by L1 and Kelly (1984). This assay uses soluble cell-free system derived from mammalian cell nuclear extract that is capable of replicating exogenous plasmid DNA molecules containing the simian virus 40 (SV40) origin of replication. Replication in the system is completely dependent upon the addition of the SV40 large T antigen. […]

[3] = system: single-stranded (ss) DNA cellulose; experiment: DNA cellulose binding of in vitro transcribed and translated 35S-labeled Killin, single-stranded; details: washed with PBS
Method: as §1, with “designed: […]” for “designed:”

[4] = system: double-stranded (ds) DNA cellulose; experiment: DNA cellulose binding of in vitro transcribed and translated 35S-labeled Killin, double-stranded; details: washed with PBS
Method: as §1, with “designed: […]” for “designed:”

Molecule: C-terminal 124-178 amino acid residues: Killin coding region truncated at unique Eco41III site, C-terminal part (CRGWRLGNWLHKHPHPNTCPRLPACWLPPILTERGERVPKLVPLLACYPKSKPKD; UniProt B2CW77 124-178, looked up, fragment)
- toxicity to E. coli (colony formation in the absence of transcriptional repression) (E. coli): able to transform E. coli into colonies

Molecule: Killin/N8-50: chemically synthesized peptide of 42 amino acid residues corresponding to N8-50 of Killin (SARPGRTVHVWGYRVEWKVRNGRKLQPSEWAGRGDLGGFKRRW; UniProt B2CW77 8-50, looked up, fragment)
- Kd (double-stranded DNA): 1000 nM
- Kd [1]: 1000 nM
- Kd (single-stranded DNA): 500 nM
- inhibition of DNA replication in vitro [2]: greatly inhibit DNA replication

B1: N-terminal 123 amino acids: Killin coding region truncated at unique Eco41III site, N-terminal part (protein, UniProt B2CW77 1-123, looked up, fragment)
chain: MDRPGPGSARPGRTVHVWGYRVEWKVRNGRKLQPSEWAGRGDLGGFKRRWKDTRATVGTTFRRRSRVSLVGELSKFPLPSDSSGGKSSSSFARGALAWCRQRNPNPSCAAAETGARTSLPKER
- toxicity to E. coli (colony formation in the absence of transcriptional repression) (E. coli): sufficient to retain toxicity to E. coli

B2: Killin: novel 20 kDa basic nuclear DNA binding protein of 178 amino acids (SEQ ID NO:1), p53 target gene product (protein, listed as Homo sapiens)
chain: MDRPGPGSARPGRTVHVWGYRVEWKVRNGRKLQPSEWAGRGDLGGFKRRWKDTRATVGTTFRRRSRVSLVGELSKFPLPSDSSGGKSSSSFARGALAWCRQRNPNPSCAAAETGARTSLPKERCRGWRLGNWLHKHPHPNTCPRLPACWLPPILTERGERVPKLVPLLACYPKSKPKD
- binding to DNA template [3]: able to bind
- binding to DNA template [4]: able to bind

B3: 6×HIS-tagged Killin: bacterially expressed full-length N-terminal His-tagged Killin (pQE32 vector) (protein, UniProt B2CW77 1-178, looked up)
chain: MDRPGPGSARPGRTVHVWGYRVEWKVRNGRKLQPSEWAGRGDLGGFKRRWKDTRATVGTTFRRRSRVSLVGELSKFPLPSDSSGGKSSSSFARGALAWCRQRNPNPSCAAAETGARTSLPKERCRGWRLGNWLHKHPHPNTCPRLPACWLPPILTERGERVPKLVPLLACYPKSKPKD
modifications: full-length N-terminal His6 tag
- time to growth arrest of the bacteria hosts after IPTG induction (E. coli; bacterial expression, induction by IPTG): ≤ 30 min
